Columns and labels:
A.R. calf lens = target: T1, A.R. calf lens (Bos taurus, UniProt P16116); assay: Inhibition of aldose reductase, calf lens; assay type: biochemical, bovine (calf)
T1 construct: crude enzyme extract isolated from lenses freshly obtained from bovines and rats; from tissue; host or cells: calf (bovine) lens, crude enzyme extract
Protocol: (§1) Enzyme inhibition was evaluated in vitro using a crude enzyme extract isolated from lenses freshly obtained from bovines and rats. The principle of the reaction is as follows: [drawing 3]
(§2) This reaction takes place at PH=6.2 at ambient temperature and extinctions were measured at 340 nm. The molecules tested were dissolved in twice-distilled water.
The aldose reductase inhibiting activity of the various heteroside caffeic esters (1) and (2) correspond to two different series of experiments.

A.R. - Rat lens = target: T2, A.R. - Rat lens (Rattus norvegicus, UniProt P07943); assay: Inhibition of aldose reductase, rat lens; assay type: biochemical
T2 construct: crude enzyme extract isolated from lenses freshly obtained from bovines and rats; from tissue; host or cells: rat lens, crude enzyme extract
Protocol: as §1, §2

human keratinocytes [1] = assay: Anti-free-radical activity in keratinocyte cultures (MDA production); assay type: cell-based; details: for inhibition at 100 µM: Homo sapiens, Keratinocyte, 2 h, 2 hours incubation, mean of 3 measurements
Protocol: The anti-free-radical activity of oraposide was investigated on a line of human keratinocytes in culture, in comparison with well known anti-free-radical agents.
The protective activity of the anti-free-radical agent was evaluated by measuring malonaldehyde (MDA) in the culture medium (reflecting the lipoperoxidation of cell membrane lipids) after the cells had been brought into contact with a source of oxygenated free radicals (after the method of Z. A. Placer et al., 1966, Anal. Biochem. 16, 359-64, reference cited above).
Cells: human keratinocytes from a squamous carcinoma.
One week after seeding the merged single layer of cells was processed with […] of a solution containing an oxygenated radical generator consisting of vitamin C 10^-3 M, FeCl3 10^-4 M, FeSO4 10^-4 M in pH 8 PBS buffer to which the molecule being tested was added (=reaction medium).
After incubation at 37° C. for 2 hours this incubation medium was recovered for the determination of MDA.
After 2 hours incubation with the cells the 500 μl of reaction medium was sampled and thiobarbituric acid was added in order to determine MDA at 532 nm.
The results are stated as % inhibition of MDA production.
The investigation was performed at a concentration of 100 μM for the 3 materials after 2 hours incubation with the reaction mixture. The MDA produced, determined by spectrophotometry, provided results which are expressed as % inhibition of this production in comparison with the controls (reaction medium alone).

human keratinocytes [2] = assay: Cytotoxicity in keratinocyte culture (LDH release); details: for cytotoxicity (in words) / % increase in OD with respect to the control (+DMSO), D1 / % increase in OD with respect to the control (+DMSO), D2 / % increase in OD with respect to the control (+DMSO), D3: 200 μM; for cytotoxicity (in words): LDH release; for % increase in OD with respect to the control (+DMSO), D1: day 1, mean of 3 measurements; for % increase in OD with respect to the control (+DMSO), D2: day 2, mean of 3 measurements; for % increase in OD with respect to the control (+DMSO), D3: day 3, mean of 3 measurements
Protocol: Culture medium: DMEM (1/2), HAM F12 (1/2) basic medium (from the Gibco company), with added 5% foetal calf serum (from the Intermed company).
Cultures were prepared in 60 mm petri dishes (NUNC), seeding density: 5000 cells per cm^2.
The compounds were tested in solution in DMSO at 200 μM, the control cultures containing an identical amount of solvent.
The amount of LDH released into the culture medium after daily treatment with anti-free-radical molecules was determined after 24 hours and then for 6 days.
The supernatant from the culture was contacted with sodium pyruvate and NADH, and the kinetics of LDH activity were measured spectrophotometrically (Boehringer kit).

rabbit liver microsomes = assay: Lipoperoxidation inhibition in liver microsomes (malonyl dialdehyde formation); assay type: biochemical
Protocol: Verbascoside, oraposide and arenarioside are heteroside esters of caffeic acid and the acids cited are other esters of caffeic acid.
A lipoperoxidation reaction takes place when rabbit liver microsomes are incubated in the presence of NADPH.
The microsomes were recovered from the processing of hepatocytes with ultrasound.
Lipoperoxidation was evaluated through the formation of malonyl dialdehyde in accordance with the method by Placer et al., 1966 (Analyt. Biochem. 16,359-364).
The reaction was performed in the absence of (control) and in the presence of caffeic acid or oraposide in a concentration of 5.10^-5 M or in the presence of α-tocopherol (Sigma) at 5.10^-5 M (known inhibiting activity reference).

[3] = test system: micromycete contaminants commonly found in foodstuffs; assay: Antifungal activity against micromycete contaminants of foodstuffs (25 species); assay type: cell-based; design: Strains whose growth was inhibited or diminished: concentration or dose not given beside the values; details: 25 species of fungi
Protocol: (§3) It is known that a number of caffeic acid derivatives inhibit the growth of bacteria and fungi. This property has been confirmed for oraposide with 40 different strains belonging to 10 genera of bacteria, and 25 different strains belonging to 25 species of fungi.
Antifungal activity was tested in relation to micromycete contaminants commonly found in foodstuffs. The test was performed with 25 species belonging to the Adelomycetes (e.g. Alternaria tenuis, Fusarium avenceum, Geotricom candidum, etc.), Mucorales (e.g. Mucor mucedo, Cunninghamella elegans, Rhizopus nigricans, etc.), Endomycetes (e.g. Candida lipolytica, Saccharomyces cerevisiae, etc.), Plectomycetes (e.g. Aspergillus clavatus, A. niger, Penicillium chrysogenum, P. rubturm, etc.), and Pyrenomycetes (e.g. Chaetomium globosum, Sordaria himicola, etc.).

[4] = UV absorption of oraposide compared with sunscreen filters (integration of UVB and UVA peak surface areas); assay type: physicochemical
From the text: Integration of the surface areas of the UVB peaks can be used to compare oraposide with Parsol MCX®, from which it can be seen that the UVB absorption activity of oraposide is 0.4 times that of Parsol MCX®. If the surface area of the UVA peak of oraposide is integrated and compared with Parsol 1 789®, it will be seen that the UVA absorption of oraposide is approximately 0.2 times that of Parsol 1 789®.

rabbit hepatocytes [5] = assay: LDH release by hepatocytes in primary culture intoxicated with nitroxynil; assay type: cell-based; details: oraposide 5.10^-5 M (0.05 mM); nitroxynil 10^-4 M; 3 and 7 hours (FIG. 1)
From the text: Reference 1 in the two blocks of histograms indicates the results obtained with untreated cultures, acting as controls, reference 2 indicates histogram blocks obtained using cultures treated with nitroxynil at a concentration of 10^-4 M, reference 3 indicates histogram blocks obtained with cultures treated with nitroxynil in a concentration of 10^-4 M and verbascoside in a concentration of 5.10 ^-5 M, reference 4 indicates histogram blocks obtained with cultures treated with nitroxynil in a concentration of 10^-4 M and oraposide in a concentration of 5.10^-5 M, and reference 5 indicates histogram blocks obtained with cultures treated with nitroxynil in a concentration of 10^-4 M and arenarioside in a concentration of 5.10^-5 M. Nitroxynil is a hepatotoxic agent, verbascoside and arenarioside are other heteroside esters of caffeic acid which are known to those skilled in the art.
(§4) The experimental model selected was investigation of the release of lactate dehydrogenase (LDH) by rabbit hepatocytes in primary culture, this LDH release representing a marker of hepatocyte deterioration.
(§5) The hepatocytes were deliberately intoxicated with nitroxynil (10^-4 to 10^-5 M) or chloroform (10^-3 to 10^-5 M) .
(§6) The effect of oraposide was evaluated for a final concentration of 0.05 mM in the culture medium.

rabbit hepatocytes [6] = assay: LDH release by hepatocytes in primary culture intoxicated with chloroform; assay type: cell-based; details: oraposide 5.10^-5 M; chloroform 10^-4 M; 3, 7 and 24 hours (FIG. 2)
From the text: As in FIG. 1, reference 1 indicates the results obtained with untreated cultures, reference 2 the results obtained with cultures treated with 10^-4 M chloroform, and reference 3 the results obtained with cultures treated with a combination of 10^-4 M chloroform and oraposide in a concentration of 5.10^-5 M. Chloroform is also a hepatotoxic agent.
as §4, §5, §6

rabbit hepatocytes [7] = assay: Cell toxicity of oraposide itself on hepatocytes; assay type: cell-based; details: even at a concentration of 100 μM
From the text: as §4

bacterial strains = assay: Antibacterial effect, 40 strains belonging to 10 genera of bacteria; assay type: cell-based; details: doses of 0.5 mg/ml and above
From the text: as §3
The bacterial strains tested were: Staphylococcus aureus, Streptococcus (group A and group D), Escherichia coli, Klebsiella pneumoniae, Proteus sp., Providentia sp., Serratia marcescens, Enterobacter cloacae, Pseudomonas aeruginosa, Salmonella (S. typhi and S. para-typhi).

Staphylococcus aureus = assay: Antibacterial effect, 29 strains of Staphylococcus aureus; assay type: cell-based
aldose reductase = assay: Inhibition of aldose reductase, comparison in the conclusion (species not given); assay type: biochemical; details: value given in conclusion, species not specified; read-out: IC 50 (conclusion)
From the text: The four molecules inhibit aldose reductase from both cattle and rats.

[8] = test system: tremor caused by a tremor-inducing factor; assay: Antitremor activity in association with L-dopa against a tremor-inducing factor, in animals and in man; assay type: in vivo; details: associated with L-dopa
From the text: (§7) In accordance with a particular embodiment of the invention within the context of antitremor treatment, in particular in Parkinson's disease, the composition according to the aforesaid invention also contains a therapeutically effective amount of L-dopa. In fat oraposide and its derivatives of formula I aforesaid have a potentiating activity for L-dopa in its antitremor activity, which is effective in particular in Parkinson's disease. Oraposide and its derivatives of formula I aforesaid associated with L-dopa in fact experimentally reduce tremor caused by a tremor-inducing factor in animals and in man. In Parkinson's disease an improvement in abnormal movements (of the choreic type) and other secondary disturbances due to treatment with L-dopa is found.

Parkinson's disease = assay: Effect in Parkinson's disease on abnormal movements and secondary disturbances due to treatment with L-dopa; assay type: in vivo; details: associated with L-dopa
From the text: as §7

[9] = 5.10^-5 M, microsomes with NADPH (FIG. 3)

C[C@@H]1OC(O[C@@H]2[C@@H](O)[C@H](OCCc3ccc(O)c(O)c3)O[C@H](CO[C@@H]3OC[C@@H](O)[C@H](O)[C@H]3O)[C@H]2OC(=O)/C=C/c2ccc(O)c(O)c2)[C@H](O)[C@H](O)[C@H]1O (stereo partly shown) [Arenarioside]
IC50 (A.R. calf lens; series (1)): 2380 nM
IC50 (A.R. calf lens; series (2)): 1470 nM
IC50 (A.R. - Rat lens): 4180 nM

Cc1cc(C(C)(C)C)c(O)c(C(C)(C)C)c1 [BHT, reference compound]
inhibition at 100 µM (human keratinocytes [1]): 64 ± 2%
cytotoxicity (in words) (human keratinocytes [2]): high cytotoxicity

O=C(O)/C=C/c1ccc(O)c(O)c1 [Caffeic acid, 3,4-dihydroxycinnamic acid]
inhibition of lipoperoxidation (in words) (rabbit liver microsomes; [9]): equivalent inhibiting activity
Strains whose growth was inhibited or diminished [3]: 83%
Strains whose growth was inhibited by an MIC <10 mg/ml [3]: 52%

O=C(/C=C/c1ccc(O)c(O)c1)O[C@@H]1C[C@](O)(C(=O)O)C[C@@H](O)[C@H]1O [Chlorogenic acid]
Strains whose growth was inhibited or diminished [3]: 80%
Strains whose growth was inhibited by an MIC <10 mg/ml [3]: 40%

CC1OC(OC2C(OC(=O)C=Cc3ccc(O)c(O)c3)C(CO)OC3OCC(c4ccc(O)c(O)c4)OC32)C(O)C(O)C1O [Oraposide, 3-0-(α-L-rhamnopyranosyl)-[2-(3,4-dihydroxyphenyl)-1,2-ethylidene]-β-D-glucopyranoside 4-caffeate]
UVA absorption relative to Parsol 1 789 ([4]; surface area of UVA peak, vs Parsol 1 789): approximately 0.2 times
UVB absorption activity relative to Parsol MCX ([4]; surface area of UVB peak, vs Parsol MCX): 0.4 times
release of LDH by hepatocytes intoxicated with nitroxynil (rabbit hepatocytes [5]): very significantly reduces the release of LDH
release of LDH by hepatocytes intoxicated with chloroform (rabbit hepatocytes [6]): a less clear effect
cell toxicity (rabbit hepatocytes [7]): no cell toxicity
inhibition of lipoperoxidation (rabbit liver microsomes; [9]): 100%
inhibition of lipoperoxidation (in words) (rabbit liver microsomes; [9]): stronger inhibition
inhibition of lipid oxidation potentiated by CCl4 (rabbit liver microsomes; free radical generator CCl4): 100%
inhibition of lipid oxidation potentiated by H2O2 (rabbit liver microsomes; free radical generator H2 O2): 90%
IC50 (rabbit liver microsomes; read-out: dose required to obtain 50% inhibition of lipoperoxidation, FIG. 4): 10000 nM
inhibition of all bacterial strains (bacterial strains): 100%
inhibition at 60 µg/mL (Staphylococcus aureus; 0.06 mg/ml): 70%
inhibition at 120 µg/mL (Staphylococcus aureus; 0.12 mg/ml): 80%
Strains whose growth was inhibited or diminished [3]: 92%
Strains whose growth was inhibited by an MIC <10 mg/ml [3]: 64%
IC50 (A.R. calf lens; series (1)): 150 nM
IC50 (A.R. calf lens; series (2)): 165 nM
IC50 (A.R. - Rat lens): 220 nM
IC50 (aldose reductase): 160 nM
protective power / anti-free-radical activity (in words) (human keratinocytes [1]; 100 μM): equally effective as BHT, but less effective than α-tocopherol
inhibition at 100 µM (human keratinocytes [1]; 1st experiment): 70 ± 3%
inhibition at 100 µM (human keratinocytes [1]; 2nd experiment): 60 ± 15%
tremor caused by a tremor-inducing factor [8]: reduce tremor
abnormal movements (of the choreic type) and other secondary disturbances due to treatment with L-dopa (Parkinson's disease): improvement
cytotoxicity (in words) (human keratinocytes [2]): no cytotoxic effect
% increase in OD with respect to the control (+DMSO), D1 (human keratinocytes [2]): 0%
% increase in OD with respect to the control (+DMSO), D2 (human keratinocytes [2]): 0%
% increase in OD with respect to the control (+DMSO), D3 (human keratinocytes [2]): 0%
cytotoxic effect up to a concentration of 200 μM (human keratinocytes [2]; up to 200 μM): no cytotoxic effect

O=C(/C=C/c1ccc(O)c(O)c1)O[C@H](Cc1ccc(O)c(O)c1)C(=O)O [Rosmarinic acid]
Strains whose growth was inhibited or diminished [3]: 100%
Strains whose growth was inhibited by an MIC <10 mg/ml [3]: 96%

C[C@@H]1O[C@@H](O[C@@H]2[C@@H](O)[C@H](OCCc3ccc(O)c(O)c3)O[C@H](CO)[C@H]2OC(=O)/C=C/c2ccc(O)c(O)c2)[C@H](O)[C@H](O)[C@H]1O [Verbascoside]
Strains whose growth was inhibited or diminished [3]: 72%
Strains whose growth was inhibited by an MIC <10 mg/ml [3]: 44%
IC50 (A.R. calf lens; series (1)): 1600 nM
IC50 (A.R. calf lens; series (2)): 1600 nM
IC50 (A.R. - Rat lens): 1780 nM

Cc1c(C)c2c(c(C)c1O)CCC(C)(CCCC(C)CCCC(C)CCCC(C)C)O2 (stereo not drawn) [α-tocopherol, reference compound]
inhibition of lipoperoxidation (in words) (rabbit liver microsomes; [9]): equivalent inhibiting activity
inhibition at 100 µM (human keratinocytes [1]): 100%
cytotoxicity (in words) (human keratinocytes [2]): less pronounced
% increase in OD with respect to the control (+DMSO), D1 (human keratinocytes [2]): 19 ± 2%
% increase in OD with respect to the control (+DMSO), D2 (human keratinocytes [2]): 83 ± 20%
% increase in OD with respect to the control (+DMSO), D3 (human keratinocytes [2]): 54 ± 8%
